Data as given in article PMC10817945, “Design of a novel analogue peptide with potent antibiofilm activities against Staphylococcus aureus based upon a sapecin B-derived peptide” (Scientific Reports, 2024).
≈ marks a conversion by molar mass, not a printed value. Where two headings read alike, the source gives them in different places. Non-standard residues stand in square brackets, D forms with d. Residues, ends and D or L forms follow the SMILES beside them.

Columns and labels:
Format in all cases: cell-based, Staphylococcus aureus
S. aureus strains = assay: Inhibition of bacterial surface attachment (crystal violet)
Protocol: To investigate the inhibitory effect of KLK and mKLK peptides on bacterial surface attachment and biofilm formation, the bacterial suspension in TSB with a concentration of 10^7 CFU/ml was prepared from overnight culture. An aliquot of 100 μl of the bacterial suspension was added to wells of 96-well plates containing 100 μl of the peptides solution with concentrations of 1×, 1/2× and 1/4× MIC, resulting in the final peptides concentrations of 1/2×, 1/4× and 1/8× MIC. To investigate the inhibitory effect of the peptides on surface attachment the incubation was performed at 37 °C for 2 h and to evaluate their inhibitory activity on biofilm formation the incubation was performed at 37 °C for 24 h. The wells containing only TSB medium were used as negative controls. After incubation, the contents of the wells were removed and washed three times with PBS and the wells were stained with 200 μl of 0.1% crystal violet for 20 min. The plates were washed again and excess dye was removed. A volume of 200 μl of 95% ethanol was added to each well for 20 min and absorbance was measured at 570 nm by a microplate reader.

S. aureus isolates = test system: S. aureus isolates
Protocol: Minimum inhibitory concentrations (MIC) of KLK, mKLK, and vancomycin were determined using microdilution broth assay according to clinical and laboratory standards institute (CLSI) guidelines with some modifications. Briefly, overnight cultures were diluted in Muller-Hinton broth (MHB; Merck, Germany) to achieve a final density of 5 × 10^5 CFU/ml. A volume of 100 μl of bacterial suspension was added to wells of sterile 96-well plates containing 100 μl of two-fold peptide dilutions, ranging from 0.25 to 256 µg/ml. Vancomycin was used as a positive control in this assay. […] MBC was determined by removing samples from wells with no visible growth, serially diluting, and plating on Mueller Hinton (MH) agar plates for CFU counting.

24-h S. aureus biofilms = assay: Biofilm dispersal activity (crystal violet)
Protocol: To investigate the dispersal activity of KLK and mKLK peptide, the 24-h S. aureus biofilms were prepared in TSB medium in the 96-well plates. Then, the final concentrations of 1×, 2×, and 4 × MIC were prepared for each peptide in the wells. After incubation at 37 °C for 12 h, plates were washed with PBS three times to discard unattached bacteria. Subsequently, plates were stained with 250 μl of 0.5% crystal violet for 20 min at room temperature. Then, the wells were washed and 250 μl 33% acetic acid was added to them. Finally, the absorbance was measured at 570 nm using a microplate reader.

## CC(C)C[C@@H](NC(=O)[C@H](N)Cc1c[nH]c2ccccc12)C(=O)N[C@H](Cc1c[nH]c2ccccc12)C(=O)N[C@H](C)C(=O)N[C@H](CC(C)C)C(=O)N[C@H](CC(C)C)C(=O)N[C@H](CCCCN)C(=O)N[C@H](CC(C)C)C(=O)N[C@H](CC(C)C)C(=O)N[C@H](CCCCN)C(=O)N[C@H](CC(C)C)C(=O)N[C@H](CCCCN)C(N)=O [mKLK] (H-[dW][dL][dW][dA][dL][dL][dK][dL][dL][dK][dL][dK]-NH2; N-terminus assumed)
S. aureus strains; ATCC25923, 1/4MIC, control 2.136±0.01
  crystal violet absorbance at 570 nm, bacterial attachment, Mean±SD: 1.789±0.01
S. aureus strains; ATCC25923, 1/8MIC, control 2.136±0.01
  crystal violet absorbance at 570 nm, bacterial attachment, Mean±SD: 1.952±0.07
S. aureus strains; MRSA-1, 1/2MIC, control 1.861±0.02
  crystal violet absorbance at 570 nm, bacterial attachment, Mean±SD: 1.361±0.03
S. aureus strains; MRSA-1, 1/4MIC, control 1.861±0.02
  crystal violet absorbance at 570 nm, bacterial attachment, Mean±SD: 1.599±0.08
S. aureus strains; MRSA-1, 1/8MIC, control 1.861±0.02
  crystal violet absorbance at 570 nm, bacterial attachment, Mean±SD: 1.723±0.02
S. aureus strains; MRSA-2, 1/2MIC, control 2.311±0.005
  crystal violet absorbance at 570 nm, bacterial attachment, Mean±SD: 1.496±0.01
S. aureus strains; MRSA-2, 1/4MIC, control 2.311±0.005
  crystal violet absorbance at 570 nm, bacterial attachment, Mean±SD: 1.811±0.19
S. aureus strains; MRSA-2, 1/8MIC, control 2.311±0.005
  crystal violet absorbance at 570 nm, bacterial attachment, Mean±SD: 1.906±0.13
S. aureus strains; MRSA-3, 1/2MIC, control 1.491±0.06
  crystal violet absorbance at 570 nm, bacterial attachment, Mean±SD: 0.944±0.07
S. aureus strains; MRSA-3, 1/4MIC, control 1.491±0.06
  crystal violet absorbance at 570 nm, bacterial attachment, Mean±SD: 1.078±0.07
S. aureus strains; MRSA-3, 1/8MIC, control 1.491±0.06
  crystal violet absorbance at 570 nm, bacterial attachment, Mean±SD: 1.119±0.12
S. aureus strains; MSSA-1, 1/2MIC, control 2.107±0.08
  crystal violet absorbance at 570 nm, bacterial attachment, Mean±SD: 1.229±0.07
S. aureus strains; MSSA-1, 1/4MIC, control 2.107±0.08
  crystal violet absorbance at 570 nm, bacterial attachment, Mean±SD: 1.419±0.01
S. aureus strains; MSSA-1, 1/8MIC, control 2.107±0.08
  crystal violet absorbance at 570 nm, bacterial attachment, Mean±SD: 1.592±0.36
S. aureus strains; MSSA-2, 1/2MIC, control 2.061±0.01
  crystal violet absorbance at 570 nm, bacterial attachment, Mean±SD: 1.199±0.09
S. aureus strains; MSSA-2, 1/8MIC, control 2.061±0.01
  crystal violet absorbance at 570 nm, bacterial attachment, Mean±SD: 1.576±0.46
S. aureus isolates; ATCC25923
  MBC: 4 µg/mL (≈ 2.62 µM)
S. aureus isolates; MRSA-1
  MBC: 8 µg/mL (≈ 5.25 µM)
S. aureus isolates; MRSA-2
  MBC: 8 µg/mL (≈ 5.25 µM)
S. aureus isolates; MRSA-3
  MBC: 8 µg/mL (≈ 5.25 µM)
S. aureus isolates; MSSA-1
  MBC: 4 µg/mL (≈ 2.62 µM)
S. aureus isolates; MSSA-2
  MBC: 4 µg/mL (≈ 2.62 µM)
24-h S. aureus biofilms; ATCC25923, 1MIC, control 2.79±0.03
  crystal violet absorbance at 570 nm, dispersal activity, Mean±SD: 1.277±0.01
24-h S. aureus biofilms; ATCC25923, 2MIC, control 2.79±0.03
  crystal violet absorbance at 570 nm, dispersal activity, Mean±SD: 0.790±0.15
24-h S. aureus biofilms; ATCC25923, 4MIC, control 2.79±0.03
  crystal violet absorbance at 570 nm, dispersal activity, Mean±SD: 0.35±0.01
24-h S. aureus biofilms; MRSA-1, 1MIC, control 1.903±0.003
  crystal violet absorbance at 570 nm, dispersal activity, Mean±SD: 1.271±0.02
24-h S. aureus biofilms; MRSA-1, 2MIC, control 1.903±0.003
  crystal violet absorbance at 570 nm, dispersal activity, Mean±SD: 0.926±0.07
24-h S. aureus biofilms; MRSA-1, 4MIC, control 1.903±0.003
  crystal violet absorbance at 570 nm, dispersal activity, Mean±SD: 0.587±0.28
24-h S. aureus biofilms; MRSA-2, 1MIC, control 2.014±0.01
  crystal violet absorbance at 570 nm, dispersal activity, Mean±SD: 1.349±0.04
24-h S. aureus biofilms; MRSA-2, 2MIC, control 2.014±0.01
  crystal violet absorbance at 570 nm, dispersal activity, Mean±SD: 0.929±0.09
24-h S. aureus biofilms; MRSA-2, 4MIC, control 2.014±0.01
  crystal violet absorbance at 570 nm, dispersal activity, Mean±SD: 0.579±0.08
24-h S. aureus biofilms; MRSA-3, 1MIC, control 1.255±0.29
  crystal violet absorbance at 570 nm, dispersal activity, Mean±SD: 0.637±0.16
24-h S. aureus biofilms; MRSA-3, 2MIC, control 1.255±0.29
  crystal violet absorbance at 570 nm, dispersal activity, Mean±SD: 0.5±0.11
24-h S. aureus biofilms; MRSA-3, 4MIC, control 1.255±0.29
  crystal violet absorbance at 570 nm, dispersal activity, Mean±SD: 0.296±0.009
24-h S. aureus biofilms; MSSA-1, 1MIC, control 1.787±0.1
  crystal violet absorbance at 570 nm, dispersal activity, Mean±SD: 1.063±0.09
24-h S. aureus biofilms; MSSA-1, 2MIC, control 1.787±0.1
  crystal violet absorbance at 570 nm, dispersal activity, Mean±SD: 0.675±0.02
24-h S. aureus biofilms; MSSA-1, 4MIC, control 1.787±0.1
  crystal violet absorbance at 570 nm, dispersal activity, Mean±SD: 0.378±0.02
24-h S. aureus biofilms; MSSA-2, 1MIC, control 2.116±0.006
  crystal violet absorbance at 570 nm, dispersal activity, Mean±SD: 0.992±0.01
24-h S. aureus biofilms; MSSA-2, 2MIC, control 2.116±0.006
  crystal violet absorbance at 570 nm, dispersal activity, Mean±SD: 0.637±0.20
